From publication PMC9323974, “Palladium(II) Complexes of Substituted Salicylaldehydes: Synthesis, Characterization and Investigation of Their Biological Profile” (Pharmaceuticals, 2022)
Where two headings read alike, the source gives them in different places.

Experiments:
HSA = target: T1, HSA (Homo sapiens, UniProt P02768); assay: Competitive HSA-fluorescence studies with warfarin and ibuprofen; type: binding
T1 construct: purchased Sigma-Aldrich Co

EB-DNA adduct (CT DNA) = assay: EB-displacement from EB-DNA (fluorescence); type: binding, calf
Protocol: page 8: […] spectroscopy, viscosity measurements and fluorescence emission spectroscopy studies. […] UV-vis spectroscopy was used for the evaluation of the interaction of the compounds with CT DNA, and specifically the possible binding modes of the compounds to CT DNA. Control experiments with DMSO were performed and no changes in the spectra of CT DNA were observed. In order to determine the binding mode, the UV-vis spectra of the compounds were […] concentrations of CT DNA for diverse r (r = [complex]/[DNA]) values. Effective use of the changes […] compounds were calculated by the Wolfe-[…] equation (eq. […] εf) versus [DNA]: (eq. S1) where [DNA] = the concentration of DNA in base pairs, ε f= the extinction coefficient for the free compound at the corresponding λmax, εA = Aobsd/[compound] and εb= the extinction coefficient for the compound in the fully bound form. K b is given by the ratio of slope to the y intercept in plots [DNA]/(εA-εf) versus [DNA]. S3.2 CT DNA-binding studies by viscosity measurements […] presence of increasing amounts of the compounds. The experiments were executed at room temperature and the measurements are devised in a plot (η/η 0)1/3 versus r, where η = the viscosity of DNA in the presence of the compound, and η0 = the viscosity of neat DNA in buffer solution. […] In order to determine and confirm the DNA-binding mode of the compounds, a competitive study with EB as an intercalating marker is performed by fluorescence emission spectroscopy. Therefore, the EB-displacing ability of the compounds from its EB-DNA conjugate was examined. […] solution (150 mM NaCl and 15 mM trisodium citrate at pH 7.0). The potential intercalation of the compounds between the DNA-bases was studied by the addition of a certain amount of the 8 (1 picture or pasted object on this page, not shown here) page 9: compound solution into the EB-DNA adduct solution. The influence of the compounds on the EB- DNA solution was monitored through the changes of the fluorescence emission spectra at excitation wavelength (λex) at 540 nm [S6]. […] Bearing that in mind, the observed quenching of the EB-DNA solution is evidently associated to the displacement of EB from its EB-DNA adduct. The quenching efficiency (KSV) for each compound was assessed according to the Stern - Volmer equation (eq. S2) [S6]: (eq. S2) where I0 and I = the fluorescence emission intensities of EB-DNA in the absence and presence of the quencher, respectively, [Q] = the concentration of the quencher (i.e. compounds). K SV is obtained from the Stern-Volmer plots by the slope of the diagram I0/I versus [Q]. Taking τ0 = 23 ns […] M-1s-1) of the compounds can be determined according to e quation S3: KSV = kqτo (eq. S3) 9 (1 picture or pasted object on this page, not shown here)

[1] = ABTS radical cation scavenging; conditions: compound 0.1 mM
Protocol: (§1) S1 Antioxidant biological assay
(§2) The antioxidant activity of the compounds was evaluated via their ability to scavenge in […]
(§3) vitro free radicals such as DPPH and ABTS and to reduce H2O2. […]
S1.2 Assay of radical cation ABTS–scavenging activity
The ABTS assay was performed to determine the activity of the compounds to scavenge the […]
radical cation ABTS. Initially, a water solution of ABTS was prepared (2 mM). ABTS radical cation […]
(ABTS+·) was produced by the reaction of ABTS stock solution with potassium persulfate (0.17 […]
mM) and the mixture was stored in the dark at room temperature for 12–16 h before its use. The […]
ABTS was oxidized incompletely because the stoichiometric reaction ratio of ABTS and potassium […]
persulfate is 1:0.5. The absorbance became maximal and stable only after more than 6 h of reaction […]
although the oxidation of the ABTS started immediately. The radical was stable in this form for […]
more than 2 days when allowed to stand in the dark at room temperature. Afterwards, the ABTS+· […]
solution was diluted in ethanol to an absorbance of 0.70 at 734 nm and 10 μL of diluted compounds or standards (0.1 mM) in DMSO were added. The absorbance was recorded out exactly 1 min after […]
initial mixing [S1]. The ABTS radical scavenging activity was expressed as the percentage inhibition of the absorbance of the initial ABTS solution (ABTS%). […]

DPPH radical scavenging = conditions: compound 0.1 mM
Protocol: as §1
The antioxidant activity of the compounds was evaluated via their ability to scavenge in
vitro free radicals such as DPPH and ABTS and to reduce H2O2. All the experiments were carried
S1.1 Determination of the reducing activity of the stable radical DPPH
To an ethanolic solution of DPPH (0.1 mM) an equal volume solution of the compounds
(0.1 mM) in ethanol was added. Absolute ethanol was also used as control solution. The absorbance
at 517 nm was recorded at room temperature after 30 and 60 min, in order to examine the possible
existence of a potential time–dependence of the DPPH radical scavenging activity [S1]. The DPPH–
scavenging activity of the compounds was expressed as the percentage reduction of the absorbance
values of the initial DPPH solution (DPPH%). NDGA and BHT were used as reference compounds. […]

[2] = Reduction of hydrogen peroxide; conditions: compound 0.1 mM
Protocol: as §1, §2, §3
S1.3 Reduction of hydrogen peroxide
The ability of the compounds to reduce hydrogen peroxide (H2O2) was estimated according […]
to the method described in the literature [S2]. The reaction mixture contained 20 μL of each of the […]
tested compounds (0.1 mM) and 5 μL H 2O2 solution (40 mM) in phosphate buffer (50 mM, pH 7.4).
The absorbance was measured at 230 nm after 10 min. The antioxidant activity (reduction of […]

BSA = target: T2, BSA (Bos taurus, UniProt P02769); assay: Competitive BSA-fluorescence studies with warfarin and ibuprofen; type: binding, bovine
T2 construct: purchased Sigma-Aldrich Co
T2 sequence (P02769 25-607): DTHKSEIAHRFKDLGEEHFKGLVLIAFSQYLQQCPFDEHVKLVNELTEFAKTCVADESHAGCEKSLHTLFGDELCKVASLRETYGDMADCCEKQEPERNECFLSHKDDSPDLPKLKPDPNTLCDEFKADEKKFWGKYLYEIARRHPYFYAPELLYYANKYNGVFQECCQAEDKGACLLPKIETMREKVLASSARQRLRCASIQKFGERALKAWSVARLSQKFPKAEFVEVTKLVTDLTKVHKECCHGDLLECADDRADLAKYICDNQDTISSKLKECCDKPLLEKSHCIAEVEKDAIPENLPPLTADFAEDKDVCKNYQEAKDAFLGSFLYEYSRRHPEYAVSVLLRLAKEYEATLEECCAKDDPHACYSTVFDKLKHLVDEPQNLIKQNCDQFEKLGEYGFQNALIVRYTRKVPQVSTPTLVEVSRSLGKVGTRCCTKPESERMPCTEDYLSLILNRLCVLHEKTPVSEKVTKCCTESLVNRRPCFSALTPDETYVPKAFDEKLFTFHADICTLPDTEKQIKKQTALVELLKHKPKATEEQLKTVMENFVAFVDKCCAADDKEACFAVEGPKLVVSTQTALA
Protocol: where n = the number of binding sites per albumin and K = the SA–binding constant. The K constant (M−1) is calculated from the slope in plots (ΔI/I0)/[Q] versus (ΔI/I0) and n is given by the ratio of y intercept to the slope [S9].
S4.2 Competitive SA–fluorescence studies with warfarin and ibuprofen
The competitive studies with warfarin or ibuprofen (site probes) [S10] were performed by tryptophan fluorescence quenching experiments using a fixed concentration of the BSA and site probes (3 μM) in buffer (containing 15 mM trisodium citrate and 150 mM NaCl at pH 7.0). The fluorescence emission spectra were recorded in the presence of increasing amounts of the compounds as quenchers with an excitation wavelength of 295 nm. The Scatchard equation (eq. 7) [S6] and plots were applied on the corrected SA–fluorescence emission spectra in order to determine the BSA–binding constant of the compounds in the presence of warfarin or ibuprofen.

T1 sequence (P02768 25-609): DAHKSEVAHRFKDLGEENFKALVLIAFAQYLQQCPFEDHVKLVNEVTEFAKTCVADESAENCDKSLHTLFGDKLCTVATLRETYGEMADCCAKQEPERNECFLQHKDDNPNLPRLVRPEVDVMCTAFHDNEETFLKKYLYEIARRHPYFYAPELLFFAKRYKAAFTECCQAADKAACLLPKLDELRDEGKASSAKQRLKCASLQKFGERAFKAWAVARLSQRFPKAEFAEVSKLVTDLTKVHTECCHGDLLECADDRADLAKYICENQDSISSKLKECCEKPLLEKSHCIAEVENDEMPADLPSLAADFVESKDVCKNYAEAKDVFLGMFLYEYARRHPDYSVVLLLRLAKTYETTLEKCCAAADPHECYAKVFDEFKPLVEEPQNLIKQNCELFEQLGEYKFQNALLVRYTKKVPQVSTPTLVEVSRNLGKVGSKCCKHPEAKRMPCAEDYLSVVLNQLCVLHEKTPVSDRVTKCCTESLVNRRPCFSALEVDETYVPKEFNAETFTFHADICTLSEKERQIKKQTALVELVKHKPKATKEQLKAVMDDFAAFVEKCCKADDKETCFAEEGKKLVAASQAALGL

With `O=Cc1cc(F)ccc1O` [5-F-saloH, 5-fluoro-salicylaldehyde, reference compound] as the compound, how does the Kd (HSA) read?
Its Kd is 21.5 µM.

And the Kd (HSA; read-out: HSA-binding constant K, Marker: Ibuprofen, ibuprofen)?
The Kd was 16.1 µM.

What about the Kd (HSA; read-out: HSA-binding constant K, Marker: Warfarin, warfarin) of the same compound?
The Kd was 33.1 µM.

And the “KSV (Stern–Volmer constant), EB-DNA” value (EB-DNA adduct (CT DNA))?
Its value is 3.79 (±0.11) × 10^4 M^−1.

And the “ΔΙ/Ι0 (%) EB-DNA fluorescence quenching” value (EB-DNA adduct (CT DNA); [EB] = 20 μM, [DNA] = 26 μM)?
Its value is 51.3%.

What about the “kq (EB-DNA quenching constant)” value (EB-DNA adduct (CT DNA); τo = 23 ns) of the same compound?
The value was 1.73 (±0.05) × 10^12 M^−1s^−1.

What about the ABTS% [1] of the same compound?
Its ABTS% is 19.57 ± 0.58%.

What about the “DPPH% (30 min)” value (DPPH radical scavenging; 30 min) of the same compound?
Its value is 3.96 ± 1.16%.

What about the “DPPH% (60 min)” value (DPPH radical scavenging; 60 min) of the same compound?
The value was 5.56 ± 1.06%.

And the H2O2% [2]?
Its H2O2% is 71.84 ± 0.95%.

What about the Kd (BSA) of the same compound?
The Kd was 23.2 µM.

What about the Kd (BSA; read-out: BSA-binding constant K, Marker: Ibuprofen, ibuprofen 3 μM) of the same compound?
Its Kd is 21.7 µM.

What about the Kd (BSA; read-out: BSA-binding constant K, Marker: Warfarin, warfarin 3 μM) of the same compound?
The Kd was 33.1 µM.
